Measurements from patent publication US4873236A, “Condensed diazepinones, processes for preparing them and pharmaceutical compositions containing these compounds” (Dr. Karl Thomae GmbH, priority 1986, dated 1989).
Read-outs that look alike come from different tables or passages of the source.

Assays:
[1] = molecular target: T1, muscarinic receptors, lachrymal glands (Rattus norvegicus, UniProt P08483); assay: Receptor bonding test in vivo, lachrymal glands (3H-NMS); parameters: species or system female rats; details: iv, 0.5 h, read-out: ID50 Lachrymal glands
T1 construct: from tissue; host or cells: lachrymal glands of female rats, labelled in vivo
Description: (§1) For these experiments, female rats with a body weight of about 200 g were used. Before the start of the test the animals were anaesthetised with a dosage of 1.25 g/kg of urethane. The animals were each given the prescribed dosage of test substance by intravenous injection. After 15 minutes, 113 ng/kg of ^3 H-N-methylscopolamine (^3 H-NMS) were administered by the same route. After another 15 minutes the animals were killed and the heart, bronchi and lachrymal glands were removed. These organs were dissolved in Soluene R and the radioactivity was determined. The measurements were assumed to be total bonding. […] ID50 values were determined for the individual organs using these tests.

[2] = molecular target: T2, muscarinic receptors, heart (Rattus norvegicus, UniProt P10980); assay: Receptor bonding test in vitro, heart (displacement of 3H-N-methylscopolamine); type: binding, Sprague-Dawley rats; details: 0.3 nmolar 3H-NMS, 30° C., 45 min, heart
T2 construct: After removal of the heart and submandibular gland; from tissue; host or cells: whole heart of male Sprague-Dawley rats, homogenate
T2 sequence (P10980 1-466): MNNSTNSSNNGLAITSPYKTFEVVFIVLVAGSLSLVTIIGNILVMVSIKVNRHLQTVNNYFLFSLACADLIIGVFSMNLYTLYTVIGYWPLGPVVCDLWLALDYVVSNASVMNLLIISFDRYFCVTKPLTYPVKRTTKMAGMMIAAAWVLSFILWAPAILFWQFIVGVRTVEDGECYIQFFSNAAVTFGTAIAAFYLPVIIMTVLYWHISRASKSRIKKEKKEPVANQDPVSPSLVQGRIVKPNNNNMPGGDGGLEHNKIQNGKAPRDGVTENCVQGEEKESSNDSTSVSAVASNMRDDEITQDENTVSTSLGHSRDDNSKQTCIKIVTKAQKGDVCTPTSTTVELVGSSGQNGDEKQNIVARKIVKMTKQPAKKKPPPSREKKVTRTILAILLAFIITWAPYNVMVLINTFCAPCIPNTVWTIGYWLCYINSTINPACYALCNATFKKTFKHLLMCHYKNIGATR

[3] = molecular target: T3, muscarinic receptors, submandibular gland (Rattus norvegicus, UniProt P08483); assay: Receptor bonding test in vitro, submandibular gland (displacement of 3H-N-methylscopolamine); type: binding, Sprague-Dawley rats; details: 0.3 nmolar 3H-NMS, 30° C., 45 min
T3 construct: After removal of the heart and submandibular gland; from tissue; host or cells: submandibular gland of male Sprague-Dawley rats, homogenate

M2 (vagal bradycardia) = molecular target: T4, M2 (vagal bradycardia) (Rattus norvegicus, UniProt P10980); assay: M1/M2 selectivity in the rat: inhibition of vagally stimulated bradycardia (M2); type: in vivo, male THOM rats; details: iv, 5 min, read-out: M2 activity (rat) ED50
T4 construct: The bradycardia produced by vagus stimulation; from tissue; host or cells: whole animal (male THOM rats), heart
T4 sequence (P10980 1-466): T2 sequence (P10980 1-466)
Description: The method used was described by Hammer and Giachetti (Life Sciences 31, 2991-2998 (1982)). 5 minutes after intravenous injection of increasing doses of the substance, either the right vagus was electrically stimulated (frequency: 25 Hz; pulse width: 2 ms; duration of stimulus: 30 s; number of volts: supramaximal) or 0.3 mg/kg of McN-A-343 was injected intravenously into male THOM rats. The bradycardia produced by vagus stimulation and the increase in blood pressure produced by McN-A-343 were measured.

[4] = molecular target: T5, M1 (rise in blood pressure by McN-A-343) (Rattus norvegicus, UniProt P08482); assay: M1/M2 selectivity in the rat: inhibition of McN-A-343 blood pressure increase (M1); type: in vivo, male THOM rats; details: iv, 5 min
T5 construct: from tissue
T5 sequence (P08482 1-460): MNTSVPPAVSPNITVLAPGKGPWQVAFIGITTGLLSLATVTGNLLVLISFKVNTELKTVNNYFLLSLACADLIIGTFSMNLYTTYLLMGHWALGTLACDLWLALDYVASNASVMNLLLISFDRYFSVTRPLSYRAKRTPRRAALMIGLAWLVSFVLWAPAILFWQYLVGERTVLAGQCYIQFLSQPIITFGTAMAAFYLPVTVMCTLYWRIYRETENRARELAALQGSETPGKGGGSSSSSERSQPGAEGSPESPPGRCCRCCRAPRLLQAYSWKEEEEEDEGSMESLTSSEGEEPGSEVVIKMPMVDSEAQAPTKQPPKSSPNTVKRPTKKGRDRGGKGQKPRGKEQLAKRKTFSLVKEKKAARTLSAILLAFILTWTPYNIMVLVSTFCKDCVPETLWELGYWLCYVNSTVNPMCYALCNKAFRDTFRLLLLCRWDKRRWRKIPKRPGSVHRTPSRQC

[5] = molecular target: T6, muscarinic receptors of the atrium (Cavia porcellus, UniProt H0VRN8); assay: Dissociation constants (KB) on spontaneously beating right atrium, methacholine antagonism; parameters: species or system guinea pig
T6 construct: In the isolated, spontaneously beating right atrium; from tissue; host or cells: isolated right atrium of guinea pig
T6 sequence (H0VRN8 1-466): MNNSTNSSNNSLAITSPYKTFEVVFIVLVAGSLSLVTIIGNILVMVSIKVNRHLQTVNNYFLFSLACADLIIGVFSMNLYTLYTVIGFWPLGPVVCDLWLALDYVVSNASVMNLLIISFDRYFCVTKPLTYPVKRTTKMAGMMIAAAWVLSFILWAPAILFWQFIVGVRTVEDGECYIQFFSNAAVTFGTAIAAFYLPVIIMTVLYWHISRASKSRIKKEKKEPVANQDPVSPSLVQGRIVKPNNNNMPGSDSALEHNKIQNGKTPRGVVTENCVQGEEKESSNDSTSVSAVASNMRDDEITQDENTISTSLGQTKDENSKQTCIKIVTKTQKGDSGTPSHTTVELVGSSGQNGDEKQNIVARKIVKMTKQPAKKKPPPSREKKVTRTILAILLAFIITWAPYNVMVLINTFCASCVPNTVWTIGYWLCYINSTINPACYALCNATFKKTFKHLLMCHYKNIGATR
Description: Dissociation constants (KB values) were determined in vitro on the guinea pig ileum and spontaneously beating atrium. The ileum was removed and incubated in Krebs-Henseleit solution in an organ bath. Contractions were produced by means of increasing concentrations of methacholine (M) so that a full concentration-activity curve could be plotted. Then M was washed out, the test substance was added and kept in contact for 30 minutes and again a concentration-activity curve was plotted with M. The dissociation constant was calculated according to Arunlakshana and Schild (Brit. J. Pharmacol. 14, 48, 1959) from the dosage ratio (DR), i.e. the extent of displacement of the concentration-activity curve.
In the isolated, spontaneously beating right atrium M reduced the heart rate as a function of the concentration. This effect was stopped by the addition of an antimuscarinic. Dissociation constants for the muscarinic receptors of the atrium were obtained in the same way as described above. A comparison of the dissociation constants measured in the two different tissues made it possible to identify cardioselective substances.

Solubility in water = details: in words
salivation = assay: Salivation-inhibiting effect on the rat (pilocarpine); type: in vivo, male THOM rats; details: Rattus norvegicus, iv, read-out: Salivation inhibition (rat) ED50
Description: The secretion of saliva was triggered by subcutaneous administration of 2 mg/kg of pilocarpine. The saliva was soaked up with blotting paper and the area occupied by the saliva was determined by planimetry every 5 minutes. The dosage of substance which reduced the volume of saliva by 50% was determined graphically.

[6] = system: muscarinic receptors, bronchi; assay: Receptor bonding test in vivo, bronchi (3H-NMS); parameters: species or system female rats; details: in vivo binding, i.v., rat, 113 ng/kg 3H-NMS; 30 min
Description: as §1

[7] = molecular target: T7, muscarinic receptors, heart atrium (Rattus norvegicus, UniProt P10980); assay: Receptor bonding test in vivo, heart atrium (3H-NMS); parameters: species or system female rats; details: rat, iv, 0.5 h, read-out: ID50 Heart Atrium
T7 construct: from tissue; host or cells: heart (atrium, ventricle) of female rats, labelled in vivo
T7 sequence (P10980 1-466): T2 sequence (P10980 1-466)
Description: as §1

[8] = molecular target: T8, muscarinic receptors, heart ventricle (Rattus norvegicus, UniProt P10980); assay: Receptor bonding test in vivo, heart ventricle (3H-NMS); parameters: species or system female rats; details: iv, 0.5 h, read-out: ID50 Heart Ventricle
T8 construct: the heart, bronchi and lachrymal glands were removed; from tissue; host or cells: heart (atrium, ventricle) of female rats, labelled in vivo
T8 sequence (P10980 1-466): T2 sequence (P10980 1-466)
Description: as §1

T1 sequence (P08483 whole entry): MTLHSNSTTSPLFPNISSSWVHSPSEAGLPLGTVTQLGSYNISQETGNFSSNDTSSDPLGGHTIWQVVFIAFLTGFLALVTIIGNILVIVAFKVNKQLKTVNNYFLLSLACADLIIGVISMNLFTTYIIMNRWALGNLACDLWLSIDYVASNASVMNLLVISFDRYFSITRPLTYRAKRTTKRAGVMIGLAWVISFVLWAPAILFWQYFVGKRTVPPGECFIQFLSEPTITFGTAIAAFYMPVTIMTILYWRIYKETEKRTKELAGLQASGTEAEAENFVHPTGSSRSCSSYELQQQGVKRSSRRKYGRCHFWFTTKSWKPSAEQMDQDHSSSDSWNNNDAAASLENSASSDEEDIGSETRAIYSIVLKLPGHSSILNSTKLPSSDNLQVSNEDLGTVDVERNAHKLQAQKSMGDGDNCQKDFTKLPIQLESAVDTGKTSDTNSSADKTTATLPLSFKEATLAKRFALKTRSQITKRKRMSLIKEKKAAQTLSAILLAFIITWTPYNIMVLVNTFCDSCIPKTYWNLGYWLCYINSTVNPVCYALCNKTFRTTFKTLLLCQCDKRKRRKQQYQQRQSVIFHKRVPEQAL
T3 sequence (P08483 whole entry): as above

CCN(CC)CC1CCCCN1CC(=O)N1c2ccccc2C(=O)Nc2cccnc21 (stereo not drawn) [Substance X, 11-[[2-[(diethylamino)methyl]-piperidin-1-yl]acetyl]-5,11-dihydro-6H-pyrido[2,3-b][1,4]benzodiazepin-6-one, reference compound]
ED50 [1]: > 30 mg/kg
IC50 [2]: 150 nM
IC50 [3]: 5000 nM
ED50 (M2 (vagal bradycardia); i.v., 50% reduction in vagal bradycardia): 0.16 mg/kg
ED50 ([4]; i.v., 50% reduction in blood pressure rise by 0.3 mg/kg McN-A-343, read-out: M1 activity (rat) ED50): 0.988 mg/kg
Kb ([5]; guinea pig spontaneously beating atrium, methacholine, 30 min contact, read-out: KB Heart (dissociation constant)): 105 nM

CN(C)CC1CCCCN1CCCCNC(=O)N1c2ccccc2C(=O)Nc2cccnc21 (racemic) [Example 20, D,L-5,11-Dihydro-11-[[[4-[2-[(dimethylamino)methyl]-piperidin-1-yl]butyl]amino]carbonyl]-6H-pyrido[2,3-b][1,4]benzodiazepin-6-one]
solubility in water (Solubility in water): soluble in water

Cl.O=C1Nc2cccnc2N(C(=O)NCCN2CCCCC2CN2CCCCC2)c2ccccc21 (stereo not drawn) [Example 39, 5,11-Dihydro-11-[[[2-[2-[(piperidin-1-yl)methyl]-piperidin-1-yl]ethyl]amino]carbonyl]-6H-pyrido[2,3-b][1,4]benzodiazepin-6-one hydrochloride]
solubility in water (Solubility in water): soluble in water

CN1CCN(CC(=O)N2c3ccccc3C(=O)Nc3cccnc32)CC1 [Substance Y, 5,11-dihydro-11-[(4-methyl-piperazin-1-yl)acetyl]-6H-pyrido[2,3-b][1,4]benzodiazepin-6-one, reference compound]
ED50 (salivation): 0.084 mg/kg
Kb [5]: 240 nM

CN1C2CCC1CC(OC(=O)C(CO)c1ccccc1)C2 (stereo not drawn) [Substance Z, atropine, reference compound]
ED50 [1]: 0.2 mg/kg
ED50 (M2 (vagal bradycardia)): 0.004 mg/kg
ID50 Bronchi [6]: 0.1 mg/kg
ED50 [7]: 0.08 mg/kg
ED50 [8]: 0.03 mg/kg
ED50 ([4]; read-out: M1 activity (rat) ED50): 0.016 mg/kg
Kb [5]: 1.41 nM

CCN(CC)CC1CCCCN1CCCNC(=O)N1c2ccccc2NC(=O)c2ccccc21 (stereo not drawn) [Example 8, 5-[[[3-[2-[(Diethylamino)methyl]-piperidin-1-yl]propyl]amino]carbonyl]-5,10-dihydro-11H-dibenzo[b,e][1,4]diazepin-11-one]
solubility in water (Solubility in water): Soluble in water
